Data reported in the supplement of paper PMC10883282.

Tests used:
Test in all cases: relative viability vs DMSO control (72 h) (fraction); higher = more viable cells
[1] = system: SYO-1
Outline: (§1)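 Sarcoma cell lines were plated in 384 wells to reach 80–90% confluence, treated after 24 h with 2.5 µl of serially diluted compound and held 72 h at 37 °C, 5% CO2. Relative viability was taken as percent growth from ATPLite readings, averaged over up to triplicate wells. The values were rescaled so that 1 marks full and 0 marks none.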

[2] = system: RD
Outline: as §1

[3] = system: SW684
Outline: as §1

[4] = system: SW872
Outline: as §1

[5] = system: HS729
Outline: as §1

[6] = system: SW1353
Outline: as §1

[7] = system: KHOS-NP
Outline: as §1

[8] = system: G401
Outline: as §1

[9] = system: HT1080
Outline: as §1

[10] = system: RD-ES
Outline: as §1

[11] = system: SK-LMS-1
Outline: as §1

[12] = system: KHOS-240S
Outline: as §1

COc1cc(CCc2cc(NC(=O)c3ccc(N4CC(C)NC(C)C4)cc3)n[nH]2)cc(OC)c1 (centres undefined) [AZD-4547]
Details | relative viability
[1], 0.00017 µM | 0.945
[1], 0.00051 µM | 0.864
[1], 0.00152 µM | 0.836
[1], 0.00457 µM | 0.763
[1], 0.01372 µM | 0.672
[1], 0.04115 µM | 0.637
[1], 0.1235 µM | 0.588
[1], 0.3704 µM | 0.559
[1], 1.111 µM | 0.519
[1], 3.333 µM | 0.408
[1], 10 µM | 0.224
[2], 0.00017 µM | 1.03
[2], 0.00051 µM | 1.08
[2], 0.00152 µM | 1.07
[2], 0.00457 µM | 1.07
[2], 0.01372 µM | 1.08
[2], 0.04115 µM | 1.1
[2], 0.1235 µM | 1.063
[2], 0.3704 µM | 1.08
[2], 1.111 µM | 1.06
[2], 3.333 µM | 0.858
[2], 10 µM | 0.419
[3], 0.00017 µM | 1.11
[3], 0.00051 µM | 1.1
[3], 0.00152 µM | 1.12
[3], 0.00457 µM | 1.14
[3], 0.01372 µM | 1.07
[3], 0.04115 µM | 1.07
[3], 0.1235 µM | 1.06
[3], 0.3704 µM | 1.06
[3], 1.111 µM | 1.08
[3], 3.333 µM | 1.08
[3], 10 µM | 0.999
[4], 0.00017 µM | 1.05
[4], 0.00051 µM | 1
[4], 0.00152 µM | 1
[4], 0.00457 µM | 0.991
[4], 0.01372 µM | 0.987
[4], 0.04115 µM | 0.976
[4], 0.1235 µM | 0.963
[4], 0.3704 µM | 0.954
[4], 1.111 µM | 0.926
[4], 3.333 µM | 0.725
[4], 10 µM | 0.465
[5], 0.00017 µM | 1.02
[5], 0.00051 µM | 0.918
[5], 0.00152 µM | 0.914
[5], 0.00457 µM | 0.901
[5], 0.01372 µM | 0.827
[5], 0.04115 µM | 0.83
[5], 0.1235 µM | 0.65
[5], 0.3704 µM | 0.627
[5], 1.111 µM | 0.57
[5], 3.333 µM | 0.473
[5], 10 µM | 0.265
[6], 0.00017 µM | 1.06
[6], 0.00051 µM | 1.03
[6], 0.00152 µM | 1.03
[6], 0.00457 µM | 0.981
[6], 0.01372 µM | 0.938
[6], 0.04115 µM | 0.886
[6], 0.1235 µM | 0.893
[6], 0.3704 µM | 0.849
[6], 1.111 µM | 0.821
[6], 3.333 µM | 0.829
[6], 10 µM | 0.595
[7], 0.00017 µM | 1.079
[7], 0.00051 µM | 1.1
[7], 0.00152 µM | 1.07
[7], 0.00457 µM | 1.08
[7], 0.01372 µM | 1.048
[7], 0.04115 µM | 1.03
[7], 0.1235 µM | 1.03
[7], 0.3704 µM | 1.01
[7], 1.111 µM | 1.02
[7], 3.333 µM | 1
[7], 10 µM | 0.927
[8], 0.00017 µM | 1
[8], 0.00051 µM | 0.999
[8], 0.00152 µM | 0.964
[8], 0.00457 µM | 0.976
[8], 0.01372 µM | 0.9
[8], 0.04115 µM | 0.845
[8], 0.1235 µM | 0.706
[8], 0.3704 µM | 0.589
[8], 1.111 µM | 0.486
[8], 3.333 µM | 0.356
[8], 10 µM | 0.136
[9], 0.00017 µM | 1.085
[9], 0.00051 µM | 1.1
[9], 0.00152 µM | 1.08
[9], 0.00457 µM | 1.07
[9], 0.01372 µM | 1.06
[9], 0.04115 µM | 1.01
[9], 0.1235 µM | 1.04
[9], 0.3704 µM | 1.08
[9], 1.111 µM | 1.04
[9], 3.333 µM | 1.04
[9], 10 µM | 0.859
[10], 0.00017 µM | 0.946
[10], 0.00051 µM | 0.96
[10], 0.00152 µM | 0.959
[10], 0.00457 µM | 0.961
[10], 0.01372 µM | 0.95
[10], 0.04115 µM | 0.9048
[10], 0.1235 µM | 0.89
[10], 0.3704 µM | 0.871
[10], 1.111 µM | 0.808
[10], 3.333 µM | 0.6084
[10], 10 µM | 0.173
[11], 0.00017 µM | 0.9811
[11], 0.00051 µM | 0.953
[11], 0.00152 µM | 0.944
[11], 0.00457 µM | 0.993
[11], 0.01372 µM | 0.938
[11], 0.04115 µM | 0.991
[11], 0.1235 µM | 0.954
[11], 0.3704 µM | 0.9652
[11], 1.111 µM | 0.986
[11], 3.333 µM | 0.965
[11], 10 µM | 0.645
[12], 0.00017 µM | 1.04
[12], 0.00051 µM | 1.07
[12], 0.00152 µM | 1.036
[12], 0.00457 µM | 1.02
[12], 0.01372 µM | 1.02
[12], 0.04115 µM | 0.9306
[12], 0.1235 µM | 0.841
[12], 0.3704 µM | 0.784
[12], 1.111 µM | 0.72
[12], 3.333 µM | 0.619
[12], 10 µM | 0.288

CC#CC(=O)N1CCC[C@H]1c1nc(-c2ccc(C(=O)Nc3ccccn3)cc2)c2c(N)nccn12 [Acalabrutinib]
Details | relative viability
[1], 0.00017 µM | 0.958
[1], 0.00051 µM | 0.946
[1], 0.00152 µM | 0.941
[1], 0.00457 µM | 0.937
[1], 0.01372 µM | 0.945
[1], 0.04115 µM | 0.932
[1], 0.1235 µM | 0.94
[1], 0.3704 µM | 0.934
[1], 1.111 µM | 0.928
[1], 3.333 µM | 0.948
[1], 10 µM | 0.898
[2], 0.00017 µM | 1.13
[2], 0.00051 µM | 1.13
[2], 0.00152 µM | 1.12
[2], 0.00457 µM | 1.15
[2], 0.01372 µM | 1.13
[2], 0.04115 µM | 1.09
[2], 0.1235 µM | 1.06
[2], 0.3704 µM | 1.06
[2], 1.111 µM | 1.09
[2], 3.333 µM | 1.13
[2], 10 µM | 1.07
[3], 0.00017 µM | 1.11
[3], 0.00051 µM | 1.14
[3], 0.00152 µM | 1.09
[3], 0.00457 µM | 1.13
[3], 0.01372 µM | 1.13
[3], 0.04115 µM | 1.1
[3], 0.1235 µM | 1.11
[3], 0.3704 µM | 1.15
[3], 1.111 µM | 1.14
[3], 3.333 µM | 1.12
[3], 10 µM | 1.08
[4], 0.00017 µM | 0.999
[4], 0.00051 µM | 1.02
[4], 0.00152 µM | 1.01
[4], 0.00457 µM | 1.01
[4], 0.01372 µM | 0.975
[4], 0.04115 µM | 0.95
[4], 0.1235 µM | 0.979
[4], 0.3704 µM | 0.997
[4], 1.111 µM | 1.04
[4], 3.333 µM | 1.03
[4], 10 µM | 0.987
[5], 0.00017 µM | 0.88
[5], 0.00051 µM | 0.865
[5], 0.00152 µM | 0.903
[5], 0.00457 µM | 0.941
[5], 0.01372 µM | 0.866
[5], 0.04115 µM | 0.877
[5], 0.1235 µM | 0.894
[5], 0.3704 µM | 0.868
[5], 1.111 µM | 0.889
[5], 3.333 µM | 0.88
[5], 10 µM | 0.95
[6], 0.00017 µM | 0.974
[6], 0.00051 µM | 0.933
[6], 0.00152 µM | 0.942
[6], 0.00457 µM | 0.946
[6], 0.01372 µM | 0.947
[6], 0.04115 µM | 0.944
[6], 0.1235 µM | 0.957
[6], 0.3704 µM | 0.936
[6], 1.111 µM | 0.962
[6], 3.333 µM | 0.8927
[6], 10 µM | 0.827
[7], 0.00017 µM | 1.03
[7], 0.00051 µM | 1.03
[7], 0.00152 µM | 1.04
[7], 0.00457 µM | 1.04
[7], 0.01372 µM | 1.02
[7], 0.04115 µM | 1.03
[7], 0.1235 µM | 1.03
[7], 0.3704 µM | 1.05
[7], 1.111 µM | 1.04
[7], 3.333 µM | 1.08
[7], 10 µM | 1.08
[8], 0.00017 µM | 0.98
[8], 0.00051 µM | 0.991
[8], 0.00152 µM | 0.997
[8], 0.00457 µM | 1.02
[8], 0.01372 µM | 1.01
[8], 0.04115 µM | 1.01
[8], 0.1235 µM | 0.985
[8], 0.3704 µM | 0.996
[8], 1.111 µM | 1.02
[8], 3.333 µM | 0.997
[8], 10 µM | 0.917
[9], 0.00017 µM | 1.03
[9], 0.00051 µM | 1.05
[9], 0.00152 µM | 1.05
[9], 0.00457 µM | 1.036
[9], 0.01372 µM | 1.01
[9], 0.04115 µM | 1.029
[9], 0.1235 µM | 1.04
[9], 0.3704 µM | 1.07
[9], 1.111 µM | 1.03
[9], 3.333 µM | 1.08
[9], 10 µM | 1.04
[10], 0.00017 µM | 0.9637
[10], 0.00051 µM | 0.979
[10], 0.00152 µM | 0.998
[10], 0.00457 µM | 0.982
[10], 0.01372 µM | 1
[10], 0.04115 µM | 0.99
[10], 0.1235 µM | 0.992
[10], 0.3704 µM | 1.021
[10], 1.111 µM | 1.02
[10], 3.333 µM | 0.974
[10], 10 µM | 0.9313
[11], 0.00017 µM | 1
[11], 0.00051 µM | 1.01
[11], 0.00152 µM | 1.03
[11], 0.00457 µM | 1.04
[11], 0.01372 µM | 1.04
[11], 0.04115 µM | 1
[11], 0.1235 µM | 1.03
[11], 0.3704 µM | 1.04
[11], 1.111 µM | 1.06
[11], 3.333 µM | 1.03
[11], 10 µM | 0.944
[12], 0.00017 µM | 1.06
[12], 0.00051 µM | 1.06
[12], 0.00152 µM | 1.07
[12], 0.00457 µM | 1.09
[12], 0.01372 µM | 1.06
[12], 0.04115 µM | 1.06
[12], 0.1235 µM | 1.03
[12], 0.3704 µM | 1.04
[12], 1.111 µM | 1.041
[12], 3.333 µM | 1.04
[12], 10 µM | 1.05
